We go through seven molecules from patent US20230183656A1, “METHODS AND COMPOSITIONS FOR PURIFYING ADENO ASSOCIATED VIRUS PARTICLES OR ADENOVIRUSES” (Merck Patent GmbH, priority 2020, published 2023).

For data set [1] the following is noted: cited from earlier work.
In another data set the test system is AAV2. The data set is described as follows: AAV2 release after cell lysis (physical titer by ELISA, genome titer by qPCR). Format: cell-based. The settings on record: for AAV2 viral titers after cell lysis: 90 min, 37° C., 0.5% Triton X-100, 0.5 M NaCl, or 0.5 M sodium chloride and 1% TDAO, FIG. 1 and 2; for increase of AAV2 dissociation by addition to 0.5 M NaCl: 1% detergent added to 0.5 M NaCl, FIG. 2. How it is done:
(§1) An AAV2 suspension upstream process is performed including a cell lysis step using various single reagents, like Triton X-100 (T100) or TDAO at various concentrations or 0.5 M NaCl, all at 37° C. The samples were centrifuged at ~13000 g for 5 min at different time points post lysis, and supernatants were removed and stored at -70° C. for assays. Physical titers were measured by enzyme-linked immunosorbent assay (ELISA) using an AAV2 Titration ELISA kit (Progen) following manufacturer’s protocol, genome titers were measured by quantitative PCR (qPCR) targeting a specific sequence within the transfer vector. All reagents and assay protocols are from MilliporeSigma unless otherwise specified. Among all the conditions tested, 0.5 M NaCl was the only one capable of releasing significant amounts of AAV2 at physical titer of e10 vp/mL and genome titer of e9 gc/mL levels (FIG. 1). Moreover, time-dependent effects from 30 min to 90 min post lysis for all 3 single reagents, and concentration-dependent effects from 0.5% to 1% for both single detergents have been observed (FIG. 1).
The same process is performed as in Example 1 but with NaCl combined with different detergents.
To investigate the optimal concentration of TDAO in combination with 0.5 M NaCl, an AAV2 dissociation test using 0 to 4% of TDAO and including an additional lysis time of 60 min was performed. […] Furthermore, the best lysis time of 90 min was confirmed as before based on genome titers. When calculating % full viral particles (vp) as the ratio of genome titer to physical titer, it was noted that 2% TDAO also facilitated more release of full viral particles over time with ~100% full VP at 90 min post lysis due to unknown mechanisms (FIG. 4).
(In general: In an ELISA, binding on a coated surface is turned into a signal by an enzyme label.)

A further data set concerns HEK293T-derived cells. The data set can be described thus: Turbidity post lysis and % cell lysis (ViCell XR) in 3L Mobius bioreactor. Format: cell-based, human. Particulars: AAV2, 3L Mobius at 72 hr PT; NaCl at 0.5 M; lysed cells to total cells before lysis. On the procedure:
Cell lysis performed according to the general procedure of Example 1 was performed with different reagents and compared in terms of turbidity reduction and lysis efficiency.
Each turbidity in Table 2 is an average of 1-3 bioreactors x 2 measurements. PT = post transfection. […] Cell counts were taken by ViCell XR before lysis and at 30 min post lysis, and % cell lysis was calculated as a ratio of lysed cells to total cells before lysis.

Another data set has as its system AAV9. The data set is described as follows: AAV9 release after cell lysis (titers as in Example 1). It is filed as cell-based. The settings on record: with NaCl, FIG. 5. How it is done:
as §1
An AAV9 suspension upstream process is performed as in Example 1 but using both single reagents and double reagents combined with NaCl.

Consider `CCCCCCCCCCCCCCCC[N+](C)(C)[O-]` [N,N-Dimethylhexa decylamine N-oxide], for which, in data set [1], the “biodegradation in 28 days” value was less than 88%.

Consider `[Cl-].[Na+]` [NaCl, sodium chloride, reference compound], for which the “AAV2 viral titers after cell lysis” value in the data set with AAV2 is listed as “significantly reduced viral titers”. The “% cell lysis after 30 min” value in the data set with HEK293T-derived cells is on record as 80%.

`CCCCCCCCCC[N+](C)(C)[O-]` [N,N-Dimethyldecyl amine N-oxide]: the “biodegradation in 28 days” value in data set [1] was 97%.

For `CCCCCCCCCCCC[N+](C)(C)[O-]` [LDAO, N,N-Dimethyldode cylamine N-oxide], in data set [1], the “biodegradation in 28 days” value was 95%.

Regarding `CCCCCCCCCCCCCC[N+](C)(C)[O-]` [TDAO, N,N-Dimethyltertra decylamine N-oxide], in the data set with AAV2 (0 to 4% of TDAO, genome titers, FIG. 3), the “increase of AAV2 dissociation by addition of TDAO to 0.5 M NaCl” value is recorded as 3-5 fold. The “increase of AAV2 dissociation by addition to 0.5 M NaCl” value in the data set on AAV2 was 3-9 fold. Also, the “% full viral particles (ratio of genome titer to physical titer)” value in the data set with AAV2 (2% TDAO with 0.5 M NaCl, 90 min post lysis, FIG. 4) is given as ~ 100%. In addition, in the data set with AAV9, the “AAV9 dissociation, double reagents with 2% TDAO compared to 1% TDAO” value is reported as “no benefits”. Besides, in data set [1], the “biodegradation in 28 days” value is recorded as 88%.

Turning to `CCCCCCCC[N+](C)(C)[O-]` [N,N-Dimethyloctyl amine N-oxide], the “biodegradation in 28 days” value in data set [1] is given as 100%.

In the case of Triton X-100 [reference compound], in the data set with AAV2, the “increase of AAV2 dissociation by addition to 0.5 M NaCl” value is reported as “not” and the “AAV2 viral titers after cell lysis” value was “significantly reduced viral titers”.
